# Where two headings read alike, the source gives them in different places.
# Columns and labels:
# [1] = Gel formation on mixing the product with the same amount of water; type: physicochemical
# Procedure: . Then, the mixture was mixed with stirring at room temperature for 48 hours. After the solid catalyst was separated by filtration, ethanol and acetonitrile were distilled away under reduced pressure, and 4.0 g of transparent viscous liquid was obtained.
# [2] = Gelation ability in KGM medium (visual); type: physicochemical; settings: room temperature
# Procedure: (§1) In order to investigate the gelation ability of the above-described polyhydric alcohol substituted silane derivatives in water, the present inventors visually evaluated the progress of gelation for the 1,3-butylene glycol substituted compound and glycerin substituted compound.
# (§2) The gelation ability was evaluated by adding the polyhydric alcohol substituted silane derivative to water or KGM medium to obtain various concentrations, mixing and stirring at room temperature, allowing the solution to stand still, and visually observing the gelation.
# [3] = Gelation ability in aqueous solution (visual); type: physicochemical; settings: room temperature
# Procedure: as §1, §2
# [4] = Solubility of polyhydric alcohol substituted silane derivatives in various solvents; type: physicochemical; settings: summary of Table 1
# Procedure: Subsequently, the present inventors evaluated the solubility of the thus obtained polyhydric alcohol substituted silane derivatives in various solvents.
# The evaluation of solubility was conducted by adding a polyhydric alcohol substituted silane derivative into various solvents so that the concentration would be 5 weight %, mixing and stirring at room temperature, allowing them to stand still, and visually observing the solution state. The evaluation criteria were as follows.
# papain = target: T1, papain (Carica papaya, UniProt P00784); experiment: Stabilization of papain enzyme activity in solid gel on storage; type: biochemical
# T1 sequence (P00784 134-345): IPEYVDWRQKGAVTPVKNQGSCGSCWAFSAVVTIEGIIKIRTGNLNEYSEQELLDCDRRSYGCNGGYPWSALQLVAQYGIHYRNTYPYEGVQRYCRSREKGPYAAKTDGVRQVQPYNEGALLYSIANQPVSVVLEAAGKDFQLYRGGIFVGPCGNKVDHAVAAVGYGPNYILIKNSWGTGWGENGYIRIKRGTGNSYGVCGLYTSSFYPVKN
# Procedure: Into 1 g of water, 0.2 g of the propylene glycol substituted silane derivative, (Si—(OCH2CH2CH2OH)4), was dissolved. Into this solution, 0.2 mL of papain solution (4 μg/mL) was added and mixed, and the samples were charged on a 96-hole plate and allowed to stand for a fixed length of time. Similarly, several test samples were prepared, and they were maintained at various temperatures (0° C., 37° C., room temperature, and 50° C.). After 2 hours and after 3 days, the papain enzyme activity of each sample was measured. The enzyme activity was measured with a plate reader after the enzyme substrate, N-carbobenzoxy-phenylarginine-4-methylcoumarinamide (Z-PheArg-MCA), was directly added into the 96-hole plate and allowed to stand for 20 minutes at room temperature. In Comparative Example 5, the papain enzyme activity was measured in the same way as Example 21 except that the propylene glycol substituted silane derivative was not used.
# The values of enzyme activity were standardized by setting the enzyme activity of the comparative example sample that had been stored at 0° C. for 2 hours to 100.0.
molecule,measurement,setting,value
"OCC(O)CO[Si](OCC(O)CO)(OCC(O)CO)OCC(O)CO (stereo not drawn) [Glycerin substituted silane derivative, Si—(O—CH2—CHOH—CH2—OH)4]",Result of mixing the product with the same amount of water,[1]; room temperature,homogeneous transparent gel
same,Appearance (gelation),[2]; 2.5 % (wt/vol),"Transparent solution, slight thickening after 2 hours, pasty"
same,Appearance (gelation),[2]; 5.6 % (wt/vol),"Transparent solution, gelation after 3 hours, some"
same,Appearance (gelation),[2]; 11.0 % (wt/vol),"Transparent solution, gelation after 1 hour, some"
same,Appearance (gelation),[2]; 21.0 % (wt/vol),"Transparent solution, gelation (ringing gel) after 30"
same,Appearance (gelation),[2]; 35.0 % (wt/vol),"Transparent solution, gelation (ringing gel) after 30"
same,Appearance (gelation),[3]; 10.0 % (wt/vol),"Transparent, thickening after about 1 week, agar-like soft"
same,Appearance (gelation),[3]; 20.0 % (wt/vol),"Translucent low-viscosity gel after 1 day, some"
same,Appearance (gelation),[3]; 30.0 % (wt/vol),"Gelation after 1 day, some seeping-out ringing gel"
CC(O)CCO[Si](OCCC(C)O)(OCCC(C)O)OCCC(C)O (stereo not drawn) [Si—(OCH2CH2CH2OHCH3)4],Solubility in other organic solvents,[4],excellent solubility in other organic solvents
same,Result of mixing the product with the same amount of water,[1],homogeneous transparent gel
same,Appearance (gelation),[2]; 2.9 % (wt/vol),"Transparent solution, slight thickening after 2 hours, pasty"
same,Appearance (gelation),[2]; 5.3 % (wt/vol),"Transparent solution, gelation after 1 hour, some"
same,Appearance (gelation),[2]; 10.4 % (wt/vol),"Transparent solution, gelation after 12 minutes, some"
same,Appearance (gelation),[2]; 19.6 % (wt/vol),"Transparent solution, gelation (ringing gel) after 2"
same,Appearance (gelation),[2]; 35.4 % (wt/vol),"Transparent solution, gelation (ringing gel) after 1 minute"
same,Appearance (gelation),[3]; 10.0 % (wt/vol),"Colloidal turbidity, slight thickening after about 1 week"
same,Appearance (gelation),[3]; 20.0 % (wt/vol),"Colloidal turbidity, thickening after 2 days, translucent"
same,Appearance (gelation),[3]; 30.0 % (wt/vol),"Colloidal turbidity, gelation after 2 days, seeping-out"
OCCCO[Si](OCCCO)(OCCCO)OCCCO [Si—(OCH2CH2CH2OH)4],Solubility in other organic solvents,[4],excellent solubility in other organic solvents
same,Result of mixing the product with the same amount of water,[1]; room temperature,homogeneous transparent gel
OCCO[Si](OCCO)(OCCO)OCCO [tetra(2-hydroxyethoxy)silane],Result of mixing the product with the same amount of water,[1]; room temperature,homogeneous transparent gel
"Comparative Example 5: papain sample prepared as Example 21 except that the propylene glycol substituted silane derivative was not used (protein, UniProt P00784 134-345, looked up) Papain: IPEYVDWRQKGAVTPVKNQGSCGSCWAFSAVVTIEGIIKIRTGNLNEYSEQELLDCDRRSYGCNGGYPWSALQLVAQYGIHYRNTYPYEGVQRYCRSREKGPYAAKTDGVRQVQPYNEGALLYSIANQPVSVVLEAAGKDFQLYRGGIFVGPCGNKVDHAVAAVGYGPNYILIKNSWGTGWGENGYIRIKRGTGNSYGVCGLYTSSFYPVKN","Papain enzyme activity (standardized, Comparative Example 5 at 0° C. for 2 hours = 100.0)","papain; After 2 hours, 0° C.",100.0
same,"Papain enzyme activity (standardized, Comparative Example 5 at 0° C. for 2 hours = 100.0)","papain; After 2 hours, 37° C.",98.3
same,"Papain enzyme activity (standardized, Comparative Example 5 at 0° C. for 2 hours = 100.0)","papain; After 2 hours, 50° C.",67.1
same,"Papain enzyme activity (standardized, Comparative Example 5 at 0° C. for 2 hours = 100.0)","papain; After 2 hours, Room temperature",96.5
same,"Papain enzyme activity (standardized, Comparative Example 5 at 0° C. for 2 hours = 100.0)","papain; After 3 days, 0° C.",98.9
same,"Papain enzyme activity (standardized, Comparative Example 5 at 0° C. for 2 hours = 100.0)","papain; After 3 days, 37° C.",18.6
same,"Papain enzyme activity (standardized, Comparative Example 5 at 0° C. for 2 hours = 100.0)","papain; After 3 days, 50° C.",2.2
same,"Papain enzyme activity (standardized, Comparative Example 5 at 0° C. for 2 hours = 100.0)","papain; After 3 days, Room temperature",34.5
